pIC50: −log10 of the molar value.

The target of this assay is Substance-P receptor (Homo sapiens, UniProt P25103). Description: Compound was tested for the displacement of […] Substance P from hNK1 receptor in CHO cells. In kind it is cell-based.
Sequence of Substance-P receptor (P25103 whole entry): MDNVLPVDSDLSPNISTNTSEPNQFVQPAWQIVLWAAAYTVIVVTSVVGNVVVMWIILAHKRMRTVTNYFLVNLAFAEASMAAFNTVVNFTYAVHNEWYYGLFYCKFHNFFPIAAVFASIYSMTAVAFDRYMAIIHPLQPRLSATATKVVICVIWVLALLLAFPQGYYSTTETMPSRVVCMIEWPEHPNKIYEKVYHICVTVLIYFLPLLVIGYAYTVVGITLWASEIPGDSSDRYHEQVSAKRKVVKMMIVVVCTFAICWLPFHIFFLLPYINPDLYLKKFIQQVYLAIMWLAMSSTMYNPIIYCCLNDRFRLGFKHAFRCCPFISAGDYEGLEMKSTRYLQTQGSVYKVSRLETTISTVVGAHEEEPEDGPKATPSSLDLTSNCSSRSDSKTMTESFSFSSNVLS
Compound `FC(F)(F)c1cc(CO[C@H]2CCCN[C@@H]2c2ccccc2)cc(C(F)(F)F)c1` showed a pIC50 of 6.52.

`FC(F)(F)c1cc(CO[C@H]2CCN[C@H]2c2ccccc2)cc(C(F)(F)F)c1` (racemic) gave a pIC50 of 8.15.

`FC(F)(F)c1cc(CO[C@@H]2CCCN[C@@H]2c2ccccc2)cc(C(F)(F)F)c1` (stereo in doubt) showed a pIC50 of 6.46.

Take `FC(F)(F)c1cc(CO[C@@H]2CCCN[C@@H]2c2ccccc2)cc(C(F)(F)F)c1` (stereo in doubt; (+/-)2): the pIC50 is 8.85.
